Values quoted from earlier work in patent US7179939B2, “Sodium ferric gluconate complexes and method of manufacture thereof” (priority 2004, dated 2007).

reactions associated with administration (severity) (occur at a lower rate compared to iron dextran): mild to moderate
occurrence of allergic episodes (study comparing iron dextran with sodium ferric gluconate): 3.3 allergic episodes per million doses
Substance: sodium ferric gluconate complex in sucrose
